From US8895474B2, “Herbicidally active cyclopentanediones and derivatives thereof, and their use in controlling weeds” (Syngenta Limited, priority 2009, dated 2014)

How the values were obtained:
Type in all cases: in vivo
Settings in all cases: 312 h, rate 250 g/ha, evaluated after 13 days, 100=total damage to plant, 0=no damage to plant
[1] = tested on: Alopecurus myosuroides (ALOMY); assay: Pre-emergence herbicidal activity, glasshouse pot test
In short: (§1)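 Pre-emergence spray applied one day after sowing in standard soil, using an aqueous dilution of an acetone/water (50:50) formulation with 0.5% Tween 20. Evaluation on a 0–100 damage scale after 13 days of glasshouse growth.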

Avena fatua (AVEFA) [2] = assay: as above
In short: as §1

[3] = tested on: Echinochloa crus-galli (ECHCG); assay: as above
In short: as §1

Lolium perenne (LOLPE) [4] = assay: as above
In short: as §1

[5] = tested on: Alopecurus myosuroides (ALOMY); assay: Post-emergence herbicidal activity, glasshouse pot test
In short: (§2)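 Post-emergence spray at 8 d after sowing, then 13 d glasshouse growth before scoring percent damage (0–100).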

Avena fatua (AVEFA) [6] = assay: as above
In short: as §2

[7] = tested on: Echinochloa crus-galli (ECHCG); assay: as above
In short: as §2

Lolium perenne (LOLPE) [8] = assay: as above
In short: as §2

Structure (SMILES)	pest or weed control at 250 g/ha [1] [%]	pest or weed control at 250 g/ha (Avena fatua (AVEFA) [2]) [%]	pest or weed control at 250 g/ha [3] [%]	pest or weed control at 250 g/ha (Lolium perenne (LOLPE) [4]) [%]	pest or weed control at 250 g/ha [5] [%]	pest or weed control at 250 g/ha (Avena fatua (AVEFA) [6]) [%]	pest or weed control at 250 g/ha [7] [%]	pest or weed control at 250 g/ha (Lolium perenne (LOLPE) [8]) [%]
CCc1ccc(Oc2nc3c(Cl)cc(Cl)cc3s2)cc1C1=C(O)CCC1=O [Compound A-77]	20	0	90	20	20	0	80	30
CCc1ccc(Oc2ncc(Cl)cc2C(F)(F)F)cc1C1=C(O)CCC1=O [Compound A-78]	70	70	100	100	100	90	100	90
CCc1ccc(Oc2cnc3ccc(Br)cc3n2)cc1C1=C(O)CCC1=O [Compound A-79]	40	20	90	70	0	0	50	20
CCc1ccc(Oc2ccc(C(F)(F)F)cc2Br)cc1C1=C(O)CCC1=O [Compound A-80]	0	10	80	50	40	50	80	30
CCc1ccc(Oc2ccc([N+](=O)[O-])c(Cl)c2)cc1C1=C(O)C2C(C1=O)[C@H]1CC[C@@H]2CC1 (stereo partly drawn) [Compound A-86]	0	0	20	20	10	10	100	10
CCc1ccc(Oc2ccc(C(F)(F)F)cn2)cc1C1=C(O)C2C(C1=O)[C@H]1CC[C@@H]2CC1 (stereo partly drawn) [Compound A-87]	80	30	100	90	90	100	100	90
CCc1ccc(Oc2ncc(C(F)(F)F)cc2Cl)cc1C1=C(O)C2C(C1=O)[C@H]1CC[C@@H]2CC1 (stereo partly drawn) [Compound A-88]	90	40	100	100	90	100	100	90
CCc1ccc(Oc2ncc(C(F)(F)F)cc2F)cc1C1=C(O)C2C(C1=O)[C@H]1CC[C@@H]2CC1 (stereo partly drawn) [Compound A-89]	50	70	100	100	100	100	100	100
CCc1ccc(Oc2ncc(Cl)cc2Cl)cc1C1=C(O)C2C(C1=O)[C@H]1CC[C@@H]2CC1 (stereo partly drawn) [Compound A-90]	70	70	100	100	90	100	100	100
CCc1ccc(Oc2cnc3ccc(Br)cc3n2)cc1C1=C(O)C2C(C1=O)[C@H]1CC[C@@H]2CC1 (stereo partly drawn) [Compound A-93]	10	0	100	60	60	60	100	50
CCc1ccc(Oc2ccc(C(F)(F)F)cc2[N+](=O)[O-])cc1C1=C(O)C2C(C1=O)[C@H]1CC[C@@H]2CC1 (stereo partly drawn) [Compound A-105]	10	0	60	40	40	40	90	30
CCc1ccc(Oc2nc3ccc(C(F)(F)F)cc3s2)cc1C1=C(O)C2C(C1=O)[C@H]1CC[C@@H]2CC1 (stereo partly drawn) [Compound A-108]	30	10	80	50	90	90	100	70
